Consider one molecule from paper PMC5384001 (Scientific Reports, 2017).

Experiment [1] deals with T1, GluD2-Lc-(HS2)GluN1 (Rattus norvegicus, UniProt Q63226, A654T/A766F/D767R/N763E/R768S/T764L/V761T/V765F).
T1 construct: the function of full-length receptors as well, we introduced them into the GluD2 lurcher mutant (GluD2-Lc); expressed in transfected cells; host or cells: Xenopus laevis oocytes injected with cRNA
T1 sequence (Q63226 24-1007 A654T/V761T/N763E/T764L/V765F/A766F/D767R/R768S): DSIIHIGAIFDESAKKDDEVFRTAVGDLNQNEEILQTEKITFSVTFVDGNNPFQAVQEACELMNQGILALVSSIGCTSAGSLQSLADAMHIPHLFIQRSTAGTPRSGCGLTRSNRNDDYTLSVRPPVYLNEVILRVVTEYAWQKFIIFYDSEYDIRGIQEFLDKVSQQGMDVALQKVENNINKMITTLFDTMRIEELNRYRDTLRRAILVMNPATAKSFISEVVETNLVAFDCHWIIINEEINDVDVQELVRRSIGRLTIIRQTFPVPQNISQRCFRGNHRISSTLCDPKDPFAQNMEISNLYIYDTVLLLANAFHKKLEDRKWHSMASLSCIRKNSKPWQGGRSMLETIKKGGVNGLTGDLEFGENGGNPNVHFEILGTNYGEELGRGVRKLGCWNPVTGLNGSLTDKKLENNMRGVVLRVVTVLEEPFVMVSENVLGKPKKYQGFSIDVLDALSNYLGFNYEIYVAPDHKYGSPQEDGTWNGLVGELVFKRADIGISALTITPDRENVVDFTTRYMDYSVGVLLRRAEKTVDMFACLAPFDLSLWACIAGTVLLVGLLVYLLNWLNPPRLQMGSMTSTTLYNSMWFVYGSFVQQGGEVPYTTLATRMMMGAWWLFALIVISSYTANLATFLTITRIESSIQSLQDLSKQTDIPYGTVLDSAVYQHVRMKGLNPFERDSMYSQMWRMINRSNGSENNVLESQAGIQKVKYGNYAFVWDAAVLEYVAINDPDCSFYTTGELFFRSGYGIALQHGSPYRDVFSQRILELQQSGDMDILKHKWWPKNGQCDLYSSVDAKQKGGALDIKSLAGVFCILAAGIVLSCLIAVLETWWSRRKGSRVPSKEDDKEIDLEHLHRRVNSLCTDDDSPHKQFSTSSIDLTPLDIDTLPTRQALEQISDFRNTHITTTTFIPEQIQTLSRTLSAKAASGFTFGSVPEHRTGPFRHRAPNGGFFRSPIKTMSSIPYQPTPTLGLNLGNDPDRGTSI
As to the kind of experiment: Two-electrode voltage clamp in Xenopus oocytes, inhibition of spontaneous currents. The experiment is classed as cell-based. An excerpt:
All cDNAs for expression in Xenopus oocytes were cloned into the vector pSGEM[30]. Point mutants of GluD2-Lc were constructed by overlap extension PCR with mutagenic oligonucleotide primers. The GluD2-Lc-(H)GluN1 chimera was constructed by transferring the S1- and S2-encoding sequences from GluD2-LBD-(H)GluN1 to GluD2-Lc via overlap extension PCR using tail primers. The S1 and S2 sequences were transferred separately, yielding GluD2-Lc-(HS1)GluN1 and GluD2-Lc-(HS2)GluN1 constructs. GluD2-Lc-(H)GluN1 was then produced from these by another overlap extension PCR. Complementary RNA (cRNA) for injection into oocytes was synthesised from 1 μg of linearised template DNA with the mMESSAGE mMACHINE in vitro transcription kit (Ambion, Austin, TX, USA).
Oocytes were obtained by surgically removing parts of the ovaries from Xenopus laevis (Nasco, Fort Atkinson, WI, USA) anaesthetised with 1.5 g/L 3-aminobenzoic acid ethylester (Sigma, Taufkirchen, Germany). The ovary clippings were digested with 784 U/mL (4 mg/mL) collagenase type I (Worthington, Lakewood, NJ, USA) in Ca^2+-free Barth’s solution (88 mM NaCl, 1.1 mM KCl, 2.4 mM NaHCO3, 0.8 mM MgSO4, 15 mM HEPES-NaOH, pH 7.6) with gentle agitation for 1.5–2 h at 20 °C to remove the follicular cell layer. After stopping the collagenase digestion by washing with Barth’s solution (88 mM NaCl, 1.1 mM KCl, 2.4 mM NaHCO3, 0.3 mM Ca(NO3)2, 0.4 mM CaCl2, 0.8 mM MgSO4, 15 mM HEPES-NaOH, pH 7.6), defolliculated oocytes of stages V and VI were selected and maintained at 16 °C in Barth’s solution supplemented with 100 μg/mL gentamicin, 40 μg/mL streptomycin, and 63 μg/mL penicillin. Oocytes were injected with 11 ng cRNA (10 ng of each cRNA for co-expression of GluN1 and GluN2A) using a nanoliter injector (WPI, Sarasota, FL, USA). Four days after cRNA injection, current responses were recorded under voltage clamp at –70 mV with a Turbo Tec-10CD amplifier (npi electronic, Tamm, Germany) controlled by Patchmaster software (HEKA, Lambrecht, Germany). Currents were filtered with a 20 Hz low-pass filter and then digitised with a sampling rate of 50 Hz. Recording electrodes were pulled from borosilicate glass (Hilgenberg, Malsfeld, Germany) with an L/M-3P-A vertical pipette puller (List-Medical), filled with 3 M KCl, and had resistances of 0.5–5 MΩ (voltage electrode) or 0.5–1.5 MΩ (current electrode). Recordings were performed in a 50 μL chamber under constant superfusion with extracellular solution at a flow rate of 3–5 mL/min. […] Finally, Ba-NFR and then NMDGR were applied again to check for reversibility.

Experiment [2] addresses GluN3B LBD. Also on record: method as in PMID 18636091. To be noted: cited from earlier work.

With `N[C@H](CO)C(=O)O` [D-serine], the “D-serine efficacy Mean ± SEM” value in experiment [1] (fraction of spontaneous current inhibited by D-serine) is reported as 0.9 ± 0.4%. For the same molecule, the “sensitivity to D-serine” value in experiment [1] (inhibition of spontaneous currents) was “insensitive”. For the same molecule, in experiment [2], the Kd was 163 nM.
